Data as given in ChEMBL document CHEMBL1201862, “PubChem BioAssay data set” (2004).
Calls of active or inactive are those of the source.

Tests used:
HeLa = test: viability loss in HeLa cells – cell-based, ATP luminescence, cherry-pick samples, cytotoxicity control, dose response (AID 687004); assay type: functional; conditions: Homo sapiens
HEK293 [1] = test: viability loss in HEK293T cells – cell-based, ATP luminescence, cherry-pick samples, cytotoxicity control, dose response (AID 687005); assay type: functional; conditions: Homo sapiens;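 further: cells exposed to compound for 48 hours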
[2] = HEK293 Cytotoxicity Assay Measured in Cell-Based System Using Plate Reader - 7071-01_Inhibitor_Dose_CherryPick_Activity_Set2.; assay type: functional
[3] = viability loss in THP-1 monocytes – THP-1 cells, cytotoxicity control for Vif-APOBEC3G degradation inhibitor project, dose response (AID 1117359); assay type: functional; conditions: THP-1
[4] = molecular target: NAD-dependent protein deacylase sirtuin-5, mitochondrial (Homo sapiens, UniProt Q9NXA8); test: sirtuin-5 deacylation blockers, concentration series – biochemical, fluorescence imaging, cherry-pick, set 5, dose response (AID 720591);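 further: desuccinylation of succinyl peptide AMC substrate read as fluorescence after trypsin release; potency of inhibitors that lower fluorescence and may act on trypsin instead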
Chain of NAD-dependent protein deacylase sirtuin-5, mitochondrial (Q9NXA8 whole entry): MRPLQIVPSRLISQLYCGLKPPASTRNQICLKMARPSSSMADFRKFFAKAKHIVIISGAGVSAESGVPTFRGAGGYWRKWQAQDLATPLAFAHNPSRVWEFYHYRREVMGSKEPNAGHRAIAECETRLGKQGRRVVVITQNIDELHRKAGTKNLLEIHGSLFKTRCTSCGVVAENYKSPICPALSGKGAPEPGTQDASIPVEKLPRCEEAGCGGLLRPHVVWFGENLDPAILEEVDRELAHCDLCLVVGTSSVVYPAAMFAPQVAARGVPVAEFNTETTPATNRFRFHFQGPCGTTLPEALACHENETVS

HEK293 [5] = test: EBV LMP1 TES2 canonical NF-kB signalling blockers – cell-based, HEK293, luciferase, cherry-pick, dose response (AID 588343); assay type: functional; conditions: Homo sapiens
[6] = A549 cell cytotoxicity, dose response, cytotoxicity control, plate reader, cherry-pick, antagonist series (AID 743412); assay type: functional, cell-based
[7] = blockers of bursicon-stimulated LGR2 cAMP reporter – cell-based, HEK293, CRE-luciferase reporter, cherry pick, set 2, dose response (AID 743343); assay type: functional;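 further: transfected cells were stimulated with diluted bursicon conditioned medium after compound addition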
[8] = blockade of melanocortin 4 receptor signaling – cell-based, plate reader, cherry pick, counter-screen for LGR2 antagonist project, dose response (AID 743444); assay type: functional;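 further: transfected HEK 293 cells stimulated with alpha-MSH peptide; potency of inhibitors of the alpha-MSH evoked signal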
[9] = viability loss in HEK293 cells – cell-based, plate reader, cherry-picked samples, cytotoxicity control, dose response (AID 743446); assay type: functional
[10] = IC50 of Artemis nuclease activity blockers – biochemical, fluorescence intensity, dose response (AID 720701); assay type: functional;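 further: Artemis endonuclease enzyme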
[11] = blockers of HIV-1 envelope-mediated cell-cell fusion – cherry-pick, dose response (AID 652057); assay type: functional, cell-based
[12] = blockers of HIV-1 ZM109 envelope-driven cell-cell fusion – HeLa effector, CEM target cells, luciferase, cherry-pick, dose response (AID 652058); assay type: functional, cell-based;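 further: luciferase signal from HIV-1 Env mediated cell-cell fusion of effector and target cells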
[13] = off-target signal loss in HeLa-CEM21 co-culture – HeLa F-luc CTL cells, cherry-picked, counter-screen for HIV-1 Env fusion inhibitor project, dose response (AID 652040); assay type: functional, cell-based;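 further: potency for signal decrease marking cytotoxic or nonspecific inhibition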
[14] = HIV-1 AD8 envelope cell-cell fusion blockers – cherry-pick, dose response (AID 652062); assay type: functional, cell-based;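 further: luciferase signal from cell-cell fusion driven by HIV-1 clade B AD8 Env; potency is for inhibitors of fusion seen as a drop in luminescence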
[15] = growth inhibition of yeast DHODH-expressing 3D7 parasites – SYBR Green, dry powder samples, dose response (AID 1159570); assay type: functional, cell-based;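 further: parasite growth measured after 72 hours of compound exposure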
[16] = P. falciparum Dd2 growth inhibitors, dose response, SYBR Green, cherry-picked samples (AID 1159567); assay type: functional, cell-based
[17] = Dd2 malaria parasite growth inhibition potency – SYBR Green, dry powder samples, dose response (AID 1159566); assay type: functional, cell-based;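 further: potency for growth inhibition with lower SYBR green DNA signal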
[18] = growth inhibition of PfATP4-mutant resistant parasites – NITD609-resistant line, SYBR Green, dry powder, dose response (AID 1159571); assay type: functional, cell-based;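 further: parasites synchronized at ring stage by sorbitol before testing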
[19] = toxicity to human hepatoma HepG2 cells – cell-based, cherry-picked samples, cytotoxicity control, dose response (AID 1159577); assay type: functional
Mu-type opioid receptor = Mu-type opioid receptor (Homo sapiens, UniProt P35372); assay type: functional, cell-based;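 further: U2OS cells with beta-arrestin recruitment to OPRM1 by beta-gal complementation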
Chain of Mu-type opioid receptor (P35372 whole entry): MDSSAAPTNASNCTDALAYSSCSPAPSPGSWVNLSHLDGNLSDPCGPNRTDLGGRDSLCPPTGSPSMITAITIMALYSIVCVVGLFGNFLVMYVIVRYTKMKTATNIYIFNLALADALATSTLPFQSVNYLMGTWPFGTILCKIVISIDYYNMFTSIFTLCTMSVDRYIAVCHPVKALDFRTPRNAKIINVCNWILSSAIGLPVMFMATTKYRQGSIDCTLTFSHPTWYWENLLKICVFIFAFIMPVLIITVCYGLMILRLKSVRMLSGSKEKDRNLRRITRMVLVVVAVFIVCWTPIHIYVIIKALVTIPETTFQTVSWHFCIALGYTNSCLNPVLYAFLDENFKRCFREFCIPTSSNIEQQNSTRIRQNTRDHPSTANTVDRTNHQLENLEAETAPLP

[20] = molecular target: 5-hydroxytryptamine receptor 2A (Mus musculus, UniProt P35363); assay type: functional, cell-based;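 further: CHO-K1 cells with tagged receptor and beta-arrestin; agonist potency measured as compound-induced activation of the receptor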
Chain of 5-hydroxytryptamine receptor 2A (P35363 whole entry): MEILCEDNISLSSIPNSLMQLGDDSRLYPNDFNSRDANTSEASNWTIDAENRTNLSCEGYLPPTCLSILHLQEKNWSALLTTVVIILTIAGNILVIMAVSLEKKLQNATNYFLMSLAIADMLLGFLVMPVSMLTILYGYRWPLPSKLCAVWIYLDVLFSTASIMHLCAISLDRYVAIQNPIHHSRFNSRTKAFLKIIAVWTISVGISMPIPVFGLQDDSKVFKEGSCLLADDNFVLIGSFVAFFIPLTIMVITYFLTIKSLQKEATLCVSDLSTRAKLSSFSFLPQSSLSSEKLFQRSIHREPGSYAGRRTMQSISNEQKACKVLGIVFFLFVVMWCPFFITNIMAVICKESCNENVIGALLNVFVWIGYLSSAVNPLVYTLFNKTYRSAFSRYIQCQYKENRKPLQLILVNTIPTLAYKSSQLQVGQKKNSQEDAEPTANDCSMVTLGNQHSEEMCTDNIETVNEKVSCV

Paired box protein Pax-8 = Paired box protein Pax-8 (Homo sapiens, UniProt Q06710); test: PAX8 transcriptional activity inhibition in RMG-I – RMG-I cells, luciferase, cherry-pick, dose response (AID 687027); assay type: functional, cell-based;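 further: luciferase reporter driven by Pax8 target thyroperoxidase promoter measured by SteadyGlo luminescence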
Chain of Paired box protein Pax-8 (Q06710 whole entry): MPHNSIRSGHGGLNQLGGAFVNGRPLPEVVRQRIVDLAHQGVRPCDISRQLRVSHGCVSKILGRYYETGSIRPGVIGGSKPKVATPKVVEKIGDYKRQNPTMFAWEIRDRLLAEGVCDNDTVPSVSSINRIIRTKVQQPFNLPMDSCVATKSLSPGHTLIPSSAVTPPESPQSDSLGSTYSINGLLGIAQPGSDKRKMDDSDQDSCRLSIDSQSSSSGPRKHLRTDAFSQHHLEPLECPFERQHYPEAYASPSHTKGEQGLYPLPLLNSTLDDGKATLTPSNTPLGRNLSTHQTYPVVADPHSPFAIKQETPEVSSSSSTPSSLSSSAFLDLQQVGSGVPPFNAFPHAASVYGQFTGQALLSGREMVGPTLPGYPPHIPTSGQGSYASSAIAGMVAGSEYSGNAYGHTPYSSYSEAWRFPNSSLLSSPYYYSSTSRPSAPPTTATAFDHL

[21] = OVCAR-3 cell viability loss – plate reader, dry powder samples, PAX8 inhibitor project, dose response (AID 743044); assay type: functional, cell-based
[22] = IGROV1 cell killing – plate reader, dry powder samples, PAX8 inhibitor project, dose response (AID 743043); assay type: functional, cell-based; conditions: IGROV-1
[23] = OVCAR8 cell viability loss – plate reader, dry powder samples, PAX8 project, dose response (AID 743197); assay type: functional, cell-based; conditions: OVCAR-8
[24] = luciferase reporter signal suppression in cells – H4 neuroglioma cells, luminescence, dose response (AID 1990); assay type: functional, cell-based
[25] = Luminescence Cell-Based Dose Response HTS to Identify Inhibitors of 5'UTR Stem-Loop Driven Prion Protein mRNA Translation in H4 Neuroglioblastoma Cells. [Related pubchem assays: 1827 (Project Summary), 1813 (Primary HTS)]; assay type: functional
[26] = molecular target: T1, Voltage-gated N-type calcium channel alpha-1B subunit/Amyloid beta A4 precursor protein-binding family A member 1 (Homo sapiens, UniProt Q00975+Q02410); assay type: protein assay
T1 sequence (Q00975 whole entry): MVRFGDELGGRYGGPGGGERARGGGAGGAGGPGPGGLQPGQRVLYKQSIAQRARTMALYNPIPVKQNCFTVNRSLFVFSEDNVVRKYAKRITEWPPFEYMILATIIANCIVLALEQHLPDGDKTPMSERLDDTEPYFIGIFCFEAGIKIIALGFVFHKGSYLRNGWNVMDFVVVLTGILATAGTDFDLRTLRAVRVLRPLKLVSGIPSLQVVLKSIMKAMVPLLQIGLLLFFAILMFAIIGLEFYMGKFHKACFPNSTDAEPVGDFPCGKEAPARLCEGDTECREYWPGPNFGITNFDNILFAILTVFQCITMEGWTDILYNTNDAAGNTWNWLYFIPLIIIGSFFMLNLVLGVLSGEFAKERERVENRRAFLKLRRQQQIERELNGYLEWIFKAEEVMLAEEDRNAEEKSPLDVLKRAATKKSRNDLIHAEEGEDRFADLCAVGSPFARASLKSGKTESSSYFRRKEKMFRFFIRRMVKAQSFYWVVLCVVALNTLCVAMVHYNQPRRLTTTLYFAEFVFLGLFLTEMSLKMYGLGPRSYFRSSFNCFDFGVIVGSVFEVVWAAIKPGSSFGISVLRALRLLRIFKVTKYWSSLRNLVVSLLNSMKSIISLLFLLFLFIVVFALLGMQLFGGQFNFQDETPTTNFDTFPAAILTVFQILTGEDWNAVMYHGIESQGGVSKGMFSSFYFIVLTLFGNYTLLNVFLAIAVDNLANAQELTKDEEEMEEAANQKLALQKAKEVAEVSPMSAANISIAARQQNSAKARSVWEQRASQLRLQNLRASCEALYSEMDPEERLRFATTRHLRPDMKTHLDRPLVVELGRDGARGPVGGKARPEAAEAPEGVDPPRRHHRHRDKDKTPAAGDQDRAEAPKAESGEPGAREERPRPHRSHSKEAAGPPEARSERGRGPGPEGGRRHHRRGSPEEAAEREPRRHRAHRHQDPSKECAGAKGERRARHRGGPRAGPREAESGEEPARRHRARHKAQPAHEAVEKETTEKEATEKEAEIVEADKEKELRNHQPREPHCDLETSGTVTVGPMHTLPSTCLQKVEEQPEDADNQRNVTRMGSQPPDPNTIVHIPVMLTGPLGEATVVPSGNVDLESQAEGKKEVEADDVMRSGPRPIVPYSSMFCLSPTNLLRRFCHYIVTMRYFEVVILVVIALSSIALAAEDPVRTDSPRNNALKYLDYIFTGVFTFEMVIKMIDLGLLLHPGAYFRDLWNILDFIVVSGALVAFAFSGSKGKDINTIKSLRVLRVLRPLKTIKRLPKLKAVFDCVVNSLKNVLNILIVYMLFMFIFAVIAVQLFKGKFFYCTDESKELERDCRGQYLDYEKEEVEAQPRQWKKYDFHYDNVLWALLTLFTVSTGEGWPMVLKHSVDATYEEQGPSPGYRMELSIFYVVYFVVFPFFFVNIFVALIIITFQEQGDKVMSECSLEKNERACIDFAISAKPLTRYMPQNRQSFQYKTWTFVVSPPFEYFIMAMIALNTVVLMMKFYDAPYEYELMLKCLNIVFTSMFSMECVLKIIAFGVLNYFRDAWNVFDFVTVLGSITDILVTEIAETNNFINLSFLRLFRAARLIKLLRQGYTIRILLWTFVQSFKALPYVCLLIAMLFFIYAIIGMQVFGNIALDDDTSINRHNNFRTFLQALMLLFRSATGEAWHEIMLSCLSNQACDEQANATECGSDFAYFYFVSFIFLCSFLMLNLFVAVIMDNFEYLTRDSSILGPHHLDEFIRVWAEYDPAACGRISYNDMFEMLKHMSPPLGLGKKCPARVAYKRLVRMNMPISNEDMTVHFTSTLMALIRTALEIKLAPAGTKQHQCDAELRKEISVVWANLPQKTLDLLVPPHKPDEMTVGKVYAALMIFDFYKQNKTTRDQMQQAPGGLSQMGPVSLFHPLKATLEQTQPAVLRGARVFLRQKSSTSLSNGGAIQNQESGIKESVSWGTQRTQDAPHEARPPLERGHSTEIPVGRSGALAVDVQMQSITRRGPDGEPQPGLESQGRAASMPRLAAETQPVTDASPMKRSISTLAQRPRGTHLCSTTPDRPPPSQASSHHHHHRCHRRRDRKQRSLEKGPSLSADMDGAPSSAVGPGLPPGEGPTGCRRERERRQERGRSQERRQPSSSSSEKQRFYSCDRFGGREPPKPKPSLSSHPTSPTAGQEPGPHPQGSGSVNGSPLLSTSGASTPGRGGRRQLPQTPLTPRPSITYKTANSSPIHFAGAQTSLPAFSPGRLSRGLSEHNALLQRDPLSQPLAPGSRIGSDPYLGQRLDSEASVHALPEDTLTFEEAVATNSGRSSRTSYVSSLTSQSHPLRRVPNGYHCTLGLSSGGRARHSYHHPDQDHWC
T1 sequence (Q02410 whole entry): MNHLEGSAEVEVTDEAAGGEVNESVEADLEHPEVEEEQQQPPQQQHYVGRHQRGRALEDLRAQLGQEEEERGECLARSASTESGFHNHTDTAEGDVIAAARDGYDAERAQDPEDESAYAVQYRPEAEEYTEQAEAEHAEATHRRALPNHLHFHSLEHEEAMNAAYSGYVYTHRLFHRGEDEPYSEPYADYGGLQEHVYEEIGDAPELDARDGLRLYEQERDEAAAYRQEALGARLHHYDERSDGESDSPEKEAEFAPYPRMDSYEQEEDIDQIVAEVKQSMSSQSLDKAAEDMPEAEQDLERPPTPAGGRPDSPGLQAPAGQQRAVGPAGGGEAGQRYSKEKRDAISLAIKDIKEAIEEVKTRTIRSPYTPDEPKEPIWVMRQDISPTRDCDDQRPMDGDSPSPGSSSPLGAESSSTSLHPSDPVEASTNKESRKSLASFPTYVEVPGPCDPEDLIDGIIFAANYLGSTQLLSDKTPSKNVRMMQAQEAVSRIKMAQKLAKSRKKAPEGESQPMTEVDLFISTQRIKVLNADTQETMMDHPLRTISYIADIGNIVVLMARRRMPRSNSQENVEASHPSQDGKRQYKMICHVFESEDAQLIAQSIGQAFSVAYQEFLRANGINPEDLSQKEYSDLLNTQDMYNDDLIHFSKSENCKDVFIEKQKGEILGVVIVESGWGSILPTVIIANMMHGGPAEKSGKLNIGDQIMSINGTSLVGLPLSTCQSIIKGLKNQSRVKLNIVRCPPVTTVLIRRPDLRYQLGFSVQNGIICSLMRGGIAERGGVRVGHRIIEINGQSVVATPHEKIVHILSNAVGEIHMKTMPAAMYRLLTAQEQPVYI

[27] = alpha-synuclein stem-loop luciferase translation blockers – H4 neuroglioma cells, luminescence, confirmation (AID 1988); assay type: functional, cell-based
[28] = molecular target: T1, Voltage-gated N-type calcium channel alpha-1B subunit/Amyloid beta A4 precursor protein-binding family A member 1; assay type: protein assay; remark: listed apart in the source
[29] = molecular target: T2, Apoptotic protease-activating factor 1 (Homo sapiens, UniProt O14727); assay type: functional
T2 sequence (O14727 whole entry): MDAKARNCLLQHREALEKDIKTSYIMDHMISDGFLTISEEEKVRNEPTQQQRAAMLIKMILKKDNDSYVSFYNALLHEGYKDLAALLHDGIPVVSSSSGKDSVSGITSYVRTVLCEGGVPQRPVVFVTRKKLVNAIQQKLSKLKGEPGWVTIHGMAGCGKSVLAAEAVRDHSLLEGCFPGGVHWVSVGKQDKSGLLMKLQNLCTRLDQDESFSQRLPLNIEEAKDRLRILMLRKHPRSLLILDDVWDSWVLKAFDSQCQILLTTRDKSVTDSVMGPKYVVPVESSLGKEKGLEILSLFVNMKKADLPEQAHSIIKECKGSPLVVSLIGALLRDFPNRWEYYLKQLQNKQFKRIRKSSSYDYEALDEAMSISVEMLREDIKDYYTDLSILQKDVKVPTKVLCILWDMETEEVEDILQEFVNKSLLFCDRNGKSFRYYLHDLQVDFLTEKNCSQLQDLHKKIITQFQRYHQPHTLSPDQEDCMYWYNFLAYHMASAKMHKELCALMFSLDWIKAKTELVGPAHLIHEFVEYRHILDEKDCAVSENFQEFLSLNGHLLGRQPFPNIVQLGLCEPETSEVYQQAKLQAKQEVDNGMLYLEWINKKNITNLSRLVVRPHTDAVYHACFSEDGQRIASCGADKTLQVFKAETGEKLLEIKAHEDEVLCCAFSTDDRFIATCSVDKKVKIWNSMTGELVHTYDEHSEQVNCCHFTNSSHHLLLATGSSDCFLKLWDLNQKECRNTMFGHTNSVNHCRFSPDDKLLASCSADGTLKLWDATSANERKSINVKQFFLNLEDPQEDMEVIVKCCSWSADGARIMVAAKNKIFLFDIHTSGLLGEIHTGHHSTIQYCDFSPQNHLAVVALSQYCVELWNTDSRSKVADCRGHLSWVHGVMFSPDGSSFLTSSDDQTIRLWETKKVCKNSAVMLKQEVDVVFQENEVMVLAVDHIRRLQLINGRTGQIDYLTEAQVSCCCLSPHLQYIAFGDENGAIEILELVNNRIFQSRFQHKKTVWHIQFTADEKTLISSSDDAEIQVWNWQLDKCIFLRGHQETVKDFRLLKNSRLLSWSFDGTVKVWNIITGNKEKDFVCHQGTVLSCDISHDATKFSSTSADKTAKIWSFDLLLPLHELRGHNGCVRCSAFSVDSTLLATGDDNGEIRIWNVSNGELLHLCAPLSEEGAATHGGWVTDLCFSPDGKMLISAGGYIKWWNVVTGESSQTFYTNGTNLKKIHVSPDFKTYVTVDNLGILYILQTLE

[30] = molecular target: T3, Sentrin-specific protease 8 (Homo sapiens, UniProt Q96LD8); assay type: functional
T3 sequence (Q96LD8 whole entry): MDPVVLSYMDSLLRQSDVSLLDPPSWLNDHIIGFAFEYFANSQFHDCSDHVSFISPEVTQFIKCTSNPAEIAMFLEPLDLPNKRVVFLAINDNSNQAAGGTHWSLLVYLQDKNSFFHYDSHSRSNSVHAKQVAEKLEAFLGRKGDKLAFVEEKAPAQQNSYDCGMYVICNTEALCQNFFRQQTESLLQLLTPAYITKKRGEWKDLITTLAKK

[31] = molecular target: T3, Sentrin-specific protease 8; assay type: functional; remark: listed apart in the source

SMILES: C/C=C/c1ccc([C@@H]2[C@H]3CN(C(=O)Nc4ccc(OC)cc4)CCCCN3[C@H]2CO)cc1
- AC50 (HeLa): > 52 µM (inactive)
- AC50 (HEK293 [1]): 24.4 µM (active)
- AC50 [2]: 24.4 µM (active)

SMILES: C[C@@H]1CN([C@H](C)CO)C(=O)c2cc(NC(=O)Nc3cccc4ccccc34)ccc2O[C@@H]1CN(C)C(=O)Nc1ccccc1
- AC50 (HeLa): 22.8 µM (active)

SMILES: CN(C)N1C(N)=C(C#N)C(c2cccnc2)C2=C1CCCC2=O (stereo not drawn)
- CC50 [3]: > 40 µM (active)

SMILES: Cc1c(C(=O)OCC(O)=C(C#N)c2nc3ccccc3[nH]2)oc2ccc(Br)cc12
- AC50 [4]: > 30 µM (inactive)

SMILES: Cc1ccc(C(=O)Nc2ccc3ncccc3c2)cc1
- AC50 (HEK293 [5]): 1.6 µM (active)
- AC50 (HeLa): > 52 µM (inactive)
- AC50 (HEK293 [1]): 20.5 µM (active)
- AC50 [6]: > 52 µM (inactive)
- AC50 [7]: 1.96 µM (active)
- AC50 [8]: 3.88 µM (active)
- AC50 [2]: 20.5 µM (active)
- AC50 [9]: > 52 µM (inactive)

SMILES: CCCCC(=O)Nc1ccc(N2CCCC2)cc1
- IC50 [10]: > 20 µM (inactive)

SMILES: O=C(N/N=C/c1cccs1)c1cc(-c2ccc3ccccc3c2)[nH]n1
- IC50 [10]: > 20 µM (inactive)

SMILES: O=C(NC12CC3CC(CC(C3)C1)C2)OCCNC1CCCCC1
- AC50 [11]: 2.91 µM (active)
- AC50 [12]: 6.43 µM (active)
- AC50 [13]: 4.34 µM (active)
- AC50 [14]: 7.98 µM (active)

SMILES: CN(C)C(=O)c1cccc(-c2cccc(-c3nc(C(=O)NC4CCCCC4)cc4c3[C@H](CCO)N([S@@+]([O-])C(C)(C)C)C4)c2)c1
- AC50 [15]: 1.32 µM (active)
- AC50 [16]: 2.05 µM (active)
- AC50 [17]: 0.736 µM (active)
- AC50 [18]: 0.933 µM (active)

SMILES: COc1cccc(CN2C[C@@H]3N[C@H](C2)[C@@H]3c2ccc(-c3cccc(C#N)c3)cc2)c1
- AC50 [16]: 3.66 µM (active)
- AC50 [19]: 9.19 µM (active)

SMILES: C[C@@H]1CN([C@H](C)CO)C(=O)c2cc(C#CCc3ccccc3)cnc2O[C@H]1CN(C)CC1CCCC1
- AC50 [16]: 1.91 µM (active)
- AC50 [19]: 13.5 µM (active)

SMILES: O=C(NCCO)Nc1ccc(Cl)cc1
- AC50 [4]: > 30 µM (inactive)

SMILES: COc1ccc2ccccc2c1CN1CCN(C(=O)c2ccco2)CC1
- EC50 (Mu-type opioid receptor): 92.5 µM (inactive)
- EC50 [20]: 1.77 µM (active)

SMILES: O=C(C1CC1)N1CC(=O)N2[C@H](CO)[C@H](c3ccc(C#CCc4ccccc4)cc3)[C@H]2C1
- AC50 [16]: 9.66 µM (active)
- AC50 [19]: > 39 µM (inactive)

SMILES: Cc1ccc(S(=O)(=O)Nc2ccc3c(c2)CC(=O)N([C@H](C)CO)C[C@H](C)[C@H](CN(C)Cc2ccc(Cl)c(Cl)c2)O3)cc1
- AC50 [6]: 24.7 µM (active)
- AC50 [8]: 32.4 µM (active)
- AC50 [9]: > 47 µM (inactive)

SMILES: CC(C)NC(=O)Nc1ccc2c(c1)C(=O)N([C@@H](C)CO)C[C@@H](C)[C@@H](CN(C)S(=O)(=O)c1ccc(Cl)cc1)OCCCC[C@@H](C)O2
- AC50 (HEK293 [1]): 20.6 µM (active)
- AC50 [2]: 20.6 µM (active)

SMILES: CCn1c(N2CCN(S(=O)(=O)c3ccc(OC)cc3)CC2)nc2ccccc21
- EC50 (Mu-type opioid receptor): 92.5 µM (inactive)
- EC50 [20]: 30 µM (inactive)

SMILES: C[C@H]1CCCCO[C@@H](CN(C)Cc2ccc(C(F)(F)F)cc2)[C@@H](C)CN([C@@H](C)CO)C(=O)c2cc(NC(=O)Nc3ccc4c(c3)OCO4)ccc2O1
- AC50 (Paired box protein Pax-8): 7.11 µM (active)
- AC50 [21]: 21.1 µM (active)
- AC50 [22]: 49.6 µM (active)
- AC50 [23]: 51.5 µM (active)

SMILES: CCOC(=O)c1nn(-c2ccc(C)c(C)c2)c(=O)c2c(N)scc12
- EC50 [24]: 13.8 µM (active)
- EC50 [25]: > 120 µM (not active)
- IC50 [26]: 9.97 µM (active)
- EC50 [27]: > 120 µM (not active)
- IC50 [28]: > 50 µM (inactive)
- IC50 [29]: 42.2 µM (active)
- IC50 [30]: 5.03 µM (active)
- IC50 [31]: 5.63 µM (active)

SMILES: O=C(Nc1cccc(C(F)(F)F)c1)c1ccc2nc(-c3ccco3)c(-c3ccco3)nc2c1
- IC50 [29]: 43.9 µM (active)
- IC50 [10]: > 20 µM (inactive)

SMILES: Cc1ccc2c(c1)c1c3n2CCN(CCC#N)C3CCC1 (stereo not drawn)
- AC50 [11]: 12.9 µM (active)
- AC50 [13]: 1.89 µM (active)

SMILES: COc1ccc(CN2CCN(C(=O)c3ccco3)CC2)cc1OCc1ccccc1
- EC50 (Mu-type opioid receptor): 92.5 µM (inactive)
- EC50 [20]: 1.48 µM (active)
